Test results published in patent publication US12551479B2, “Acyl-protein thioesterase inhibitor for the treatment and/or prevention of Huntington's disease” (UNIVERSITÉ GRENOBLE ALPES, priority 2019, dated 2026).

Columns and labels:
StHdh^Q111/Q111 cells = experiment: RUSH system: GPI-SBP-mCherry trafficking from endoplasmic reticulum to Golgi and plasma membrane; format: cell-based, mouse
Protocol: The RUSH plasmid (Boncompain et al., 2012) is a bicistronic plasmid (SEQ ID NO: 2) allowing the expression of two parts of the system: the reticulum-specific anchor (KDEL-streptavidin), and the reporter part (GPI-SBP-mCh). The addition of biotin in the extracellular medium (40 μM) induces the unhooking of the reporter part of the anchor, thus allowing to follow the intracellular trafficking in a synchronized way within a cell population from the endoplasmic reticulum.
For striatal StHdh cells, acute treatment was performed at 10 μM for 1 hour before and during the acquisition time. For neurons within the microchambers, treatments were started at DIV2 until DIV12 every day at 1 μM in each compartment of the microfluidic device.
The inventors used the Retention Using Selective Hooks (RUSH) system to study intracellular dynamics from the ER to the plasma membrane in Huntington's disease condition (FIG. 1A). RUSH allows tracking the synchronous release of a reporter molecule from specific intracellular compartments. In the present experiment, the inventors followed the release of glycosylphosphatidylinositol (GPI)-anchored fluorescence protein mCherry, and fused to streptavidin-binding peptide (SBP) that was retained into the ER compartment by the interaction with a “hook” protein composed of the KDEL motif fused to streptavidin. In the absence of biotin, the GPI-SBP-mCherry localizes at the ER (FIG. 1A). Addition of biotin to the cells expressing GPI-SBP-mCherry and KDEL-streptavidin causes a synchronous release of the GPI-SBP-mCherry reporter from the hook which then migrates to the Golgi apparatus and later to the plasma membrane.
To study these dynamics in the context of Huntington's disease, the inventors transfected the GPI-SBP-mCherry-KDEL-streptavidin construct as shown in SEQ ID NO:2 into immortalized striatal cells from Hdh^Q111/Q111 and Hdh^Q7/Q7 mice, referred to as StHdh^Q111/Q111 and StHdh^Q7/Q7 cells respectively. They then monitored GPI-SBP-mCherry trafficking by real-time imaging for 90 minutes. To assess intracellular trafficking dynamics, they quantified the kinetics of appearance and disappearance of mCherry fluorescence in the Golgi apparatus over time (FIGS. 1B and C). Shortly after biotin addition, GPI leaves the ER and moves to the Golgi apparatus. The inventors quantified fluorescence at the Golgi and observed that in StHdh^Q7/Q7 cells, the peak fluorescence was at 16.6 minutes, whereas it was delayed to 23.6 minutes in StHdh^Q111/Q111 cells (FIG. 1B). Their observations indicate a reduced trafficking of GPI from the ER to the Golgi apparatus as well as prolonged retention of GPI in the Golgi as evidenced by a longer period of GPI fluorescence in the Golgi apparatus.

melanoma cells = conditions: studies of Vujic et al., 2015; cited from earlier work
APT1 = APT1 (Homo sapiens, UniProt O75608); conditions: read-out: IC50APT1; cited from earlier work
APT2 = APT2 (Homo sapiens, UniProt O95372); conditions: read-out: IC50APT2; cited from earlier work
[1] = StHdh^Q111/Q111 cells, inhibitor 10 μM 1 hour or siRNA gene silencing

Sequence of APT1 (O75608 whole entry): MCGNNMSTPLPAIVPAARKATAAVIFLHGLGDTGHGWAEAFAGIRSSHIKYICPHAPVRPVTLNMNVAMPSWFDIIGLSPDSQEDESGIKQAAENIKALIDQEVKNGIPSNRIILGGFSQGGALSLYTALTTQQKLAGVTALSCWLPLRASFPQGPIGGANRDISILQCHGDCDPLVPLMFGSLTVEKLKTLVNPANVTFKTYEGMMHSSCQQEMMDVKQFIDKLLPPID
Sequence of APT2 (O95372 whole entry): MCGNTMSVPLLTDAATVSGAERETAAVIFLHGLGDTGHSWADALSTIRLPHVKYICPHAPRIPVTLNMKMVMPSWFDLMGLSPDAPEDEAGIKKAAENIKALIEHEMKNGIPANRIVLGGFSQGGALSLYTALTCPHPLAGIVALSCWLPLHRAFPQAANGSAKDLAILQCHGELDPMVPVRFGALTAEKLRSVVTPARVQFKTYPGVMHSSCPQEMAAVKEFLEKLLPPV

Row | SMILES | effect on kinetics from the endoplasmic reticulum to the Golgi apparatus (StHdh^Q111/Q111 cells; [1]) | effect on retention in the Golgi (StHdh^Q111/Q111 cells; [1]) | effect on melanoma cells (melanoma cells) | time after biotin addition for the appearance of the fluorescence peak in the Golgi (StHdh^Q111/Q111 cells; StHdh^Q111/Q111 cells treated 1 hour with 10 μM, without treatment 23.2-23.3 min, StHdh^Q7/Q7 16.6 min) | time for fluorescence to leave the Golgi apparatus (retention time in the Golgi) (StHdh^Q111/Q111 cells; StHdh^Q111/Q111 cells treated 1 hour with 10 μM, without treatment 24-25.4 min, wild-type cells 15.1 min) | IC50 (APT1) | IC50 (APT2)
1 | COc1ccc(N2CCN(C(=O)c3cc4c(s3)-c3ccccc3S(=O)(=O)C4)CC2)cc1 [ML-349] | no effect | no effect | no biologically significant effect |  |  |  | 
2 | CCCCCCCCCC[C@@H]1C(=O)O[C@H]1CCc1ccc(OC)c(OC)c1 [Palmostatin B] |  |  |  | 18 min | 21.3 min | 0.0054 µM | 0.0377 µM
